Measured values from publication PMC8587750, “Structural Optimization and Biological Activity of Pyrazole Derivatives: Virtual Computational Analysis, Recovery Assay and 3D Culture Model as Potential Predictive Tools of Effectiveness against Trypanosoma cruzi” (Molecules, 2021).
Read-outs that look alike come from different tables or passages of the source.

Tests used:
[1] = tested on: trypomastigote forms of T. cruzi; experiment: Phenotypic screening against T. cruzi trypomastigotes (Dm28c-Luc, luciferase viability, 24 h); assay type: cell-based, Trypanosoma cruzi; conditions: for IC50 / IC90: Trypanosoma cruzi, Dm28c-Luc, 24 h; for IC50: read-out: Trypanocidal Activity Trypomastigotes IC50; for IC90: read-out: Trypanocidal Activity Trypomastigotes IC90; for Trypomastigotes SI: CC50 of Vero cells/IC50 of trypomastigote
From the text: (§1) T. cruzi Dm28c clone genetically modified to express luciferase, kindly provided by Dr. Cristina Henriques from Oswaldo Cruz Institute–Fiocruz, was used in the drug assays. Trypomastigotes were harvested from T. cruzi-infected Vero cultures supernatants at 4th days post-infection (dpi) and used in the phenotypic screening assay. For intracellular amastigotes assays, Vero cells (2D and 3D cultures) were infected at a ratio of 10:1 parasites/host cells.
The phenotypic compound screening was performed using transgenic T. cruzi parasites expressing the firefly luciferase (Dm28c-Luc). Trypomastigotes (1 × 10^6 parasites/well) were treated for 24 h at 37 °C with the pyrazole derivatives and Bz (0.04–100 μM), followed by incubation with luciferin substrate (300 µg/mL) to determine parasite viability through luciferase activity. The concentration that reduces the number of viable parasites by 50% (IC50) or 90% (IC90) was calculated by linear regression. The luminescent signal was read on a Glomax-Multi Detection plate reader (Promega Corporation, Madison, WI, EUA)). At least three independent assays were performed in duplicate.

[2] = tested on: intracellular amastigotes of T. cruzi; experiment: Activity against intracellular amastigotes in infected Vero cells (Dm28c-Luc, 72 h); assay type: cell-based, Trypanosoma cruzi; conditions: for fold drop in activity on moving Cl or Br to the meta position: 3b compared to 3g, 3k compared to 3j; for Intracellular Amastigotes SI: CC50 of Vero cells/IC50 of intracellular amastigote; for IC50 / IC90: Trypanosoma cruzi; for IC90: read-out: Trypanocidal Activity Intracellular Amastigotes IC90
From the text: as §1
The effect of the pyrazole derivatives against intracellular amastigotes was also evaluated after 72 h treatment (37 °C) with compound concentrations ranging from 0.04–100 µM [13]. Parasite viability, measured by luminescent signal, was determined after luciferin (300 µg/mL) addition. IC50 and IC90 values were calculated by linear regression. Selectivity index (SI) was calculated as the ratio of the CC50 to IC50 values. The non-toxic concentration of DMSO (less than 1% v/v) was used in all assays. A minimum of three independent assays was carried out in duplicate.

[3] = Cytotoxicity in vitro assay (ATP, CellTiter Glo, 72 h); assay type: cell-based; conditions: African green monkey, Vero cells
Procedure: Vero cells, obtained from the Rio de Janeiro Cell Bank (BCRJ code 0245), were cultured in RPMI-1640 supplemented with 10% fetal bovine serum (FBS) and 1 mM L-glutamine, as previously described. Vero cells were used for drug screening assays and to obtain trypomastigote forms of T. cruzi.
Vero cells were used as a cellular model to analyze the toxic effect of pyrazole derivatives, series 1(a–l), 2(a–l), 3(a–n), 4(a–c), and 5(a–c), and Benznidazole (Bz) on mammalian cells. Briefly, the cells, plated on 96-well white opaque microplate (1.5 × 10^4 cells/well), were treated for 72 h at 37 °C with a wide range concentration (500–1.95 µM) of the pyrazole derivatives. The cell viability was determined by measuring ATP levels using the CellTiter Glo Kit (Promega Corporation, Madison, WI, EUA) followed by reading the luminescent signal on the Glomax-Multi Detection plate reader (Promega Corporation, Madison, WI, EUA)). All treatments and controls were performed at a low concentration of DMSO (≤1%). The 50% cytotoxic concentration values (CC50; the concentration of the compound that reduces 50% of the cell viability) were estimated by linear regression analysis. Three independent assays were performed in duplicate.

[4] = tested on: T. cruzi (Dm28c-Luc) in Vero cells; experiment: Reversibility (washout) assay, parasite recrudescence in infected Vero cells; assay type: cell-based, Trypanosoma cruzi; conditions: 100 µM, 72 h after washout
Procedure: To address the question of whether the treatment with 3g, 3j, and 3m leads to parasite clearance, an intracellular T. cruzi washout assay was performed as a strategy for monitoring the parasite recrudescence. In this approach, cultures of infected Vero cells (Dm28c-Luc) were treated for 72 h at IC90 and 50 µM (2 to 5-fold de IC90) concentrations of the promising compounds 3g, 3j, and 3m and, after washing the cell monolayers, the cultures were kept for another 72 h without drug treatment. Both cell monolayers and their supernatants were evaluated for the presence of viable parasites after luciferin addition. All derivatives analyzed relapsed at the IC90 concentration (Figure 3). However, treatment with 3g, 3j, and 3m led to a significant reduction in the parasite load, reaching a decrease of 4.5-, 1.9-, and 8.7-fold, respectively, when compared to untreated infected Vero cells cultures (Figure 3). The emergence of trypomastigotes in the supernatant, at IC90 concentration, was observed three days after removal of drug pressure, but with a significant reduction in viable parasites compared to untreated cultures (Figure 3). Parasite recrudescence was not seen in 100 µM Bz treatment (Figure 3).
The washout assay, adapted from, was performed to evaluate the promising compounds efficacy. […] After successive washing, the cultures were maintained for an additional 72 h at 37 °C in RPMI 1640 medium supplemented with 10% SFB in the absence of the compound. Luciferin (300 µg/mL) was added separately to the culture supernatant, previously removed, and the cell monolayer. The luminescent signal was read on the Glomax-Multi Detection reader (Promega Corporation, Madison, WI, USA). Bz (100 µM) and DMSO (≤1%) were used as positive and negative reaction controls, respectively.

[5] = tested on: intracellular parasites in T. cruzi-infected microtissue; experiment: 3D-microtissue-based phenotypic screening (T. cruzi-infected Vero spheroids); assay type: cell-based, Trypanosoma cruzi; conditions: 72 h treatment; Bz 100 µM
Procedure: Vero cells were seeded at a density of 2 × 10^5 cells/well in a 96-well U-bottom plate previously coated with agarose (1%). The 3D cultures, adapted from, were cultivated for 4 days in RPMI 1640 medium supplemented with 10% FBS and L-glutamine for complete 3D microtissue formation. The 3D culture model was used as a tool to evaluate the effectiveness of promising derivatives in eliminating intracellular parasites in the microtissue.
The 3D-microtissue-based phenotypic screening was performed with the promising pyrazole derivatives. […] At the end of the treatment, the 3D cultures supernatants were removed, and luciferin (300 μg/mL) was added to the spheroids. The luminescent signal was read on the Glomax-Multi Detection reader (Promega Corporation, Madison, WI, USA). Bz (100 µM) and DMSO (≤1%) were used as positive and negative control, respectively. The IC50 value was calculated by linear regression. At least three independent assays were performed in quadruplicate.

[6] = Vero, 72 h, Vero cells infected with Dm28c-Luc, 72 h, read-out: Trypanocidal Activity Intracellular Amastigotes IC50
[7] = Vero, negative log of the IC50 value in molar, read-out: Intracellular Amastigotes pIC50 (converted)
[8] = Vero cells infected with Dm28c-Luc, 72 h

| SMILES | IC50 [1] | fold drop in activity on moving Cl or Br to the meta position [2] | Intracellular Amastigotes SI [2] | IC50 [2, 6] | IC50 [2, 7] | IC90 [2, 8] | CC50 at 72 h [3] | melting point | IC90 [1] | Trypomastigotes SI [1] | IC50 ([2]; Vero cells infected with Dm28c-Luc, 72 h, read-out: Trypanocidal Activity Intracellular Amastigotes IC50) | parasite recrudescence [4] | viability of intracellular parasites in microtissue, luminescence intensity (ALU) [5] |
| --- | --- | --- | --- | --- | --- | --- | --- | --- | --- | --- | --- | --- | --- |
| Brc1cccc(-n2cc(C3=NCCN3)cn2)c1 [Compound 3k, 1-(3-bromophenyl)-4-(4,5-dihydro-1H-imidazol-2-yl)-1H-pyrazole] | > 100 µM | 10 fold | 7.84 | 26.9 ± 2.19 µM | 26.9 µM | 72.9 ± 3.67 µM | 211 ± 31.7 µM | 116 to 120 °C |  |  |  |  |  |
| c1ccc(-n2cc(C3=NCCN3)cn2)cc1 [Compound 3a, 4-(4,5-dihydro-1H-imidazol-2-yl)-1-phenyl-1H-pyrazole] | > 100 µM |  | >5.44 | 91.8 ± 2.03 µM | 93.3 µM | > 100 µM | > 500 µM | 149 to 150 °C |  |  |  |  |  |
| CC1CN=C(c2cnn(-c3ccc(Cl)c(Cl)c3)c2N)N1 (stereo not drawn) [Compound 5c, 5-amino-1-(3,4-dichlorophenyl)-4-(-4(5)-methyl-4,5-dihydro-1H-imidazol-2-yl)-1H-pyrazole] | > 100 µM |  |  | 34.3 ± 4.24 µM | 34.7 µM | > 100 µM | 343 ± 37 µM | 191 to 193 °C | > 100 µM |  |  |  |  |
| Clc1ccc(-n2cc(C3=NCCN3)cn2)c(Cl)c1 [Compound 3c, 1-(2,4-dichlorophenyl)-4-(4,5-dihydro-1H-imidazol-2-yl)-1H-pyrazole] | > 100 µM |  | 7.21 | 56.6 ± 2.52 µM | 56.2 µM | 94.6 ± 3.61 µM | 409 ± 16.2 µM | 110 to 111 °C |  |  |  |  |  |
| Clc1cccc(-n2cc(C3=NCCN3)cn2)c1 [Compound 3b, 1-(3-chlorophenyl)-4-(4,5-dihydro-1H-imidazol-2-yl)-1H-pyrazole] | > 100 µM | five | 9.48 | 28.2 ± 1.81 µM | 28.2 µM | 86.6 ± 5.55 µM | 267 ± 28.1 µM | 120 to 124 °C |  |  |  |  |  |
| O=C(Cn1ccnc1[N+](=O)[O-])NCc1ccccc1 [Bz, benznidazole, reference compound] | 18.7 ± 4.58 µM |  | >107 |  | 4.68 µM | > 100 µM | > 500 µM |  | > 100 µM | >26.7 | 4.67 ± 0.22 µM | not seen | 18,858 ± 3726 ALU |
| Cc1nn(-c2cc(Cl)cc(Cl)c2)c(N)c1C1=NCCN1 [Compound 4b, 5-amino-1-(3,5-dichlorophenyl)-3-methyl-4-(4,5-dihydro-1H-imidazol-2-yl)-1H-pyrazole] | > 100 µM |  | >5.51 | 90.7 ± 13.2 µM | 91.2 µM | > 100 µM | > 500 µM | 193 to 194 °C | > 100 µM |  |  |  |  |
| Clc1ccc(-n2cc(C3=NCCN3)cn2)cc1Cl [Compound 3e, 1-(3,4-dichlorophenyl)-4-(4,5-dihydro-1H-imidazol-2-yl)-1H-pyrazole] | 64.9 ± 2.85 µM |  | 6.26 | 76.5 ± 8.79 µM | 75.9 µM | > 100 µM | 480 ± 21.7 µM | 185 to 186 °C | 93.74 ± 0.73 µM | 7.39 |  |  |  |
| Fc1cccc(-n2cc(C3=NCCN3)cn2)c1 [Compound 3i, 4-(4,5-dihydro-1H-imidazol-2-yl)-1-(3-fluorophenyl)-1H-pyrazole] | > 100 µM |  |  | 64.1 ± 7.09 µM | 64.6 µM | > 100 µM | > 500 µM | 164 to 167 °C |  |  |  |  |  |
| Fc1ccc(-n2cc(C3=NCCN3)cn2)cc1 [Compound 3h, 4-(4,5-dihydro-1H-imidazol-2-yl)-1-(4-fluorophenyl)-1H-pyrazole] | > 100 µM |  |  | 64.5 ± 3.81 µM | 64.6 µM | > 100 µM | > 500 µM | 210 to 212 °C |  |  |  |  |  |
| Cc1nn(-c2cccc(Cl)c2)c(N)c1C1=NCCN1 [Compound 4a, 5-amino-1-(3-chlorophenyl)-3-methyl-4-(4,5-dihydro-1H-imidazol-2-yl)-1H-pyrazole] | > 100 µM |  |  | > 100 µM | > 100 µM | > 100 µM | > 500 µM | 116 to 120 °C | > 100 µM |  |  |  |  |
| COc1ccc(-n2cc(C3=NCCN3)cn2)cc1 [Compound 3l, 4-(4,5-dihydro-1H-imidazol-2-yl)-1-(4-methoxyphenyl)-1H-pyrazole] | > 100 µM |  | >7 | 71.8 ± 2.71 µM | 72.4 µM | > 100 µM | > 500 µM | 196 to 197 °C |  |  |  |  |  |
